Experiments:
Format in all cases: in vivo
[1] = test system: VEGF-induced angiogenesis; assay: chick CAM assay, VEGF-induced angiogenesis, intravenous inhibitors
Description: (§1) Ten day old chick embryos were obtained from McIntyre Poultry (Lakeside, Calif.) and incubated at 37C with 60% humidity. A small hole was made through the shell at the end of the egg directly over the air sac with the use of a small crafts drill (Dremel, Division of Emerson Electric Co., Racine, Wis.). A second hole was drilled on the broad side of the egg in a region devoid of embryonic blood vessels determined previously by candling the egg. […] A 1.0 centimeter (cm)×1.0 cm square window was cut through the shell over the dropped CAM with the use of a small model grinding wheel (Dremel). The small window allowed direct access to the underlying CAM.
(§2) Angiogenesis was induced by placing a 5 millimeter (mm)×5 mm Whatman filter disk (Whatman Filter paper No. 1) saturated with Hanks Balanced Salt Solution (HBSS, GIBCO, Grand Island, N.Y.) or HBSS containing preselected cytokines at a preselected concentration, i.e. one to test the effect on angiogenesis, on the CAM of a 10 day chick embryo in a region devoid of blood vessels and the windows were later sealed with tape. Angiogenesis was monitored by photomicroscopy after 72 hours. CAMs were snap frozen then 6 μm cryostat sections were fixed with acetone and stained by immunofluorescence as described in Example 2B and 2C with 10 μg/ml of selected anti-integrin antibodies, including those directed against αvβ5 as described in Example 1.
(§3) Angiogenesis was first induced on 10 day old chick embryos by application of growth factor-saturated filter disks. Specifically, in the first assays, angiogenesis was induced by exposure to either bFGF or VEGF, each at a concentration of 150 ng/ml.
(§4) For application of growth factors, during the candling procedures, prominent blood vessels were selected and marks were made on the egg shell to indicate their positions. The holes were drilled in the shell, the CAMs were dropped and growth factor-saturated filter papers were then separately placed on the CAMs as described above. The windows were sealed with sterile tape and the embryos were replaced in the incubator.
(§5) Twenty four hours later, a second small window was carefully cut on the lateral side of the egg shell directly over prominent blood vessels selected previously. The outer egg shell was carefully removed leaving the embryonic membranes intact. The shell membrane was made transparent with a small drop of mineral oil (Perkin-Elmer Corp, Norwalk, Conn.) which allowed the blood vessels to be visualized easily. Then, phosphate buffered saline (PBS), 75 μg of purified sterile anti-integrin antibodies or 75 μg of synthetic peptides (cyclic peptide RGDfV, SEQ ID NO 4 and control cyclic peptide RADfV, SEQ ID NO 5) in PBS were injected into blood vessels apparent on the growth factor-induced CAMs. The windows were sealed with tape and the embryos were allowed to incubate until 72 hours.
The filter discs and representative surrounding CAM tissues were photographed in a stereomicroscope (FIGS. 3A–3F and FIGS. 5A–5F) and the mean angiogenic index +/− the standard error was determined for 12 CAMs per condition (FIGS. 4A–4B and FIGS. 6A–6B). Angiogenesis was scored for each embryo in a double blind manner by analyzing the number and extent of branching of blood vessels within the area of each disc. The scores ranged from 1 (low) to 4 (high) and the angiogenesis index was determined by subtracting a background of 1 from all data.
In a further assay performed in the CAM model having VEGF-induced angiogenesis, 2 μg of peptides 85189 (SEQ ID NO 9) and the inert salt counterpart 121974 were separately intravenously injected as previously described. The effect of the peptides was assessed in comparison to that of control peptide 69601 (SEQ ID NO 5) and to untreated (labeled as NT) preparations.
The effect of the peptides of VEGF-induced angiogenesis is measured through a determination of the number of blood vessel branch points. […]

[2] = test system: bFGF-induced angiogenesis; assay: chick CAM assay, bFGF-induced angiogenesis, intravenous inhibitors
Description: as §1, §2, §3, §4, §5
The filter discs and representative surrounding CAM tissues were photographed in a stereomicroscope (FIGS. 3A–3F and FIGS. 5A–5F) and the mean angiogenic index +/− the standard error was determined for 12 CAMs per condition (FIGS. 4A–4B and FIGS. 6A–6B). Angiogenesis was scored for each embryo in a double blind manner by analyzing the number and extent of branching of blood vessels within the area of each disc. The scores ranged from 1 (low) to 4 (high) and the angiogenesis index was determined by subtracting a background of 1 from all data. […]

[3] = test system: TNF-α mediated angiogenesis; assay: chick CAM assay, TNF-α-induced angiogenesis; details: TNF-α 1.0 μg/ml; antibodies 75 μg per embryo, calphostin C 100 nM
Description: (§6) The above growth factors (cytokines), including bFGF and VEGF, were separately applied at a concentration of 1.0 μg/ml to the 10 day old CAM model as previously described. PMA was used at a concentration of 20 ng/ml.
(§7) After 24 hours after growth factor treatment, the antibodies, LM609 and P1F6, or the protein kinase C (PKC) inhibitor, calphostin C, were separately provided to the CAM model, either by a single intravascular dose as described above or by topical administration as described below in the next example. For intravascular injections over the next 3 day consecutive period, the antibodies were used at a concentration of 75 μg per embryo and the calphostin C was at a dosage of 100 nM.
(§8) On day 13, filter discs and associated CAM tissue were dissected and analyzed for angiogenesis with a stereo microscope. Angiogenesis was scored in a double blind manner by analyzing the number and extent of branching of the blood vessels within the area of the discs. The scores ranged from low (1) to high (4). The angiogenesis index was determined by subtracting a background score of 1 from all data. Experiments were repeated 2–4 times with 5–6 embryos per condition.

[4] = test system: angiogenesis induced by TGF-α; assay: chick CAM assay, TGF-α-induced angiogenesis; details: TGF-α 1.0 μg/ml; antibodies 75 μg per embryo, calphostin C 100 nM
Description: as §6, §7, §8

[5] = test system: angiogenesis induced by PMA; assay: chick CAM assay, PMA-induced angiogenesis; details: PMA 20 ng/ml; antibodies 75 μg per embryo, calphostin C 100 nM
Description: as §6, §7, §8

retinal vasculogenesis = assay: newborn mouse model of retinal angiogenesis
Description: For the model, newborn mice were injected subcutaneously twice daily for four days starting from day 0 with the cyclic peptide RGDfV (SEQ ID NO 4) (also referred to as peptide 203) or the control peptide RADfV (SEQ ID NO 5). On postnatal day five, globes were removed and fixed in 4.0% paraformaldehyde (PFA) at room temperature.
To quantitate mouse retinal angiogenesis, the distance from the optic nerve head to the most distal point of a single vessel selected in each of six equal sectors around a twelve hour clock was measured. The mean distance was calculated and averaged with similar data obtained from an entire litter. To measure the total volume of retinal blood vessels, the entire specimen was scanned in 2.0 μm optical sections and stored digitally. The “seed” function in Bio-Rad's Lasersharp software was then used to threshold and count cubic pixels in each section. A macro was written to sum the volume of all sections and determine the value for all vascular structures.

## calphostin C [reference compound]
[1]; VEGF 1.0 μg/ml, antibodies 75 μg per embryo, calphostin C 100 nM
  effect on CAM angiogenesis induced by VEGF (angiogenesis index): blocked angiogenesis
[2]; bFGF 1.0 μg/ml, antibodies 75 μg per embryo, calphostin C 100 nM
  effect on CAM angiogenesis in response to bFGF (angiogenesis index): minimal effects
[3]
  effect on CAM angiogenesis in response to TNF-α (angiogenesis index): minimal effects
[4]
  effect on CAM angiogenesis induced by TGF-α (angiogenesis index): blocked angiogenesis
[5]
  effect on CAM angiogenesis induced by PMA (angiogenesis index): blocked angiogenesis

## cyclo(Arg-Gly-Asp-D-Phe-Val) [compound 66203]
[1]; VEGF 150 ng/ml, 75 μg antibody or peptide intravenously, 72 hours
  inhibition of VEGF-induced CAM angiogenesis: abolished angiogenesis
Retinal vasculogenesis; five-day old treated animals
  volume of retinal blood vessels compared with untreated newborn mice: indistinguishable
Retinal vasculogenesis; newborn mice, s.c. twice daily for four days
  inhibition of retinal vasculogenesis compared to untreated counterparts: ~100%
Retinal vasculogenesis; postnatal day five
  mean volume of retinal vessels: 3.6×10^6 μm^3
Retinal vasculogenesis; s.c. twice daily for four days from day 0, postnatal day five, N=9
  inhibition of retinal vasculogenesis relative to control peptide (vessel growth in two dimensions): 44%
Retinal vasculogenesis; three dimensional analysis, postnatal day five
  reduction in retinal vascular volume compared to controls: 78%
Retinal vasculogenesis; two dimensions
  difference in vessel growth between untreated newborn mice and treated five-day old mice: No statistical difference
[2]; bFGF 150 ng/ml, 75 μg antibody or peptide intravenously, 72 hours
  inhibition of bFGF-induced CAM angiogenesis: abolished angiogenesis

— US7053041B1, “Methods and compositions useful for inhibition of αvβ5mediated angiogenesis” (The Scripps Research Institute, priority 1996, dated 2006)
